# Source: patent US9421208B2, “Methods for the treatment of solid tumors” (Pharmacyclics LLC, priority 2013, dated 2016)
# Entries after “also recorded” stand apart in the source; their conditions may differ.
# System: lung tumors in Grg1 transgenic mice
# Test: Tumor development in Grg1 transgenic mouse model of non-small cell lung cancer
# Format: in vivo
# Settings: for tumors visible on whole lung lobes: 3 month mice after 4 weeks of treatment (FIG. 8); for average number of surface tumors per mouse: abexinostat 12 mg/kg BID i.p., ibrutinib ~22 mg/kg/day in drinking water; for tumor histology in lung tissue sections: 6 month mice after 4 weeks of treatment; for tumors visible on whole left lung lobes: 6 month mice after 4 weeks of treatment (FIG. 7); for average number of large tumors (over 1 mm in diameter) per mouse: 6 month samples, tissue sections of left lung lobe
# Experimental: The aim of the experiment is to evaluate the effect of two drugs on tumor development in a mouse model of non-small cell lung cancer.
# Grg1 transgenic mice were used to evaluate the drugs. Grg1 transgenic mice overexpress the Groucho-related gene 1 (Grg1). The mice develop lung tumors that resemble human non-small cell lung cancer. Tumors initiate at 1 month of age and progress to invasive adenocarcinoma by 8 months of age. The drugs were administered to 2 month-old mice or to 5 month-old mice, and mice were treated for 4 weeks. The former group is referred to as the 3 month samples and the latter as the 6 month samples.
# Mice were bred to generate double transgenic (Grg1/Cre recombinase) mice on a CD1 background. Four groups of female double transgenic mice were established:
# At least 8 mice in each group were treated at 2 months old and 8 mice in each group were treated at 5 months old. Treatments lasted 4 weeks, and mice were sacrificed at 3 months and 6 months. Therefore samples are referred to as 3 month samples or 6 month samples.
# Abexinostat was administered by intraperitoneal (i.p.) injection, twice per day for five days each week. Mice were weighed and injected with 6 μl per gram body weight of a 1 mg/ml solution. The dosage was 12 mg/kg BID.
# Mice were treated for 4 weeks. After treatment, mice were euthanized and lung tissue was examined.
# For quantitation of tumors, the total visible tumors on the lung surface were counted using a dissecting microscope. In addition, the left lung lobe was fixed in 4% PFA, paraffin-embedded and 5 μm sections were taken for 100 μm at two levels. The first level began 30 μm below the lung surface and the second level began 130 μm below the lung surface. Alternate slides were H&E stained, and tumors were detected and counted using a dissecting microscope. Tumor diameter was measured using an inverted microscope and reticule.
# [1] = 3 month samples: treated 4 weeks from 2 months
# [2] = 6 month samples: treated 4 weeks from 5 months
SMILES,tumors visible on whole lung lobes,average number of surface tumors per mouse [1],tumor histology in lung tissue sections,tumors visible on whole left lung lobes,average number of large tumors (over 1 mm in diameter) per mouse,average number of surface tumors per mouse [2],tumor diameter in 6 month sections (6 month sections (FIG. 9))
"CN(C)Cc1c(C(=O)NCCOc2ccc(C(=O)NO)cc2)oc2ccccc12 [Abexinostat, 3-[(dimethylamino)methyl]-N-{2-[4-(hydroxycarbamoyl)phenoxy]ethyl}-1-benzofuran-2-carboxamide]",one small tumor is visible,3.0,"high number of apoptotic cells; also recorded: lymphocyte infiltration, necrosis and large areas with apoptotic cells",medium and small tumors are visible,0.5,4.6,–
"C=CC(=O)N1CCC[C@@H](n2nc(-c3ccc(Oc4ccccc4)cc3)c3c(N)ncnc32)C1 [Ibrutinib, (R)-1-(3-(4-amino-3-(4-phenoxyphenyl)-1H-pyrazolo[3,4-d]pyrimidin-1-yl)piperidin-1-yl)prop-2-en-1-one]",one small tumor is visible,2.6,lack the high number of apoptotic macrophages; also recorded: less tumor necrosis than the control samples; also recorded: lymphocyte infiltration but not the apoptotic macrophages seen in the control and in Abexinostat-treated mice,medium and small tumors are visible,0.5,7.6,"no small tumors in Ib-treated sections, just one large tumor"
